pEC50, pIC50: −log10 of the molar value.
Columns and labels:
[1] = test system: DPS/Y181C; test: activity against HIV mutants: DPS/Y181C; type: cell-based, HIV-1
[2] = test system: mutant viruses containing reverse transcriptase domain at codons 181, 139 and 100; test: activity against three other mutant viruses; type: cell-based, HIV
[3] = test system: HIV-1 AZT^res; test: in vitro anti-HIV activity, AZT resistant HIV-1; type: cell-based; conditions: Human immunodeficiency virus 1
[4] = U1/TNF differential latent infection, XTT and p24; conditions: human, u1 cells
[5] = test system: U1 latent infection; test: U1/TNF differential latent infection, XTT and p24
[6] = target: BSA (Bos taurus, UniProt P02769); test: interaction with BSA by fluorescence spectroscopy; type: binding, bovine; conditions: PMZ-1 in the μM range
[7] = test system: CALO/V901, P225S; test: microbe, parasite or virus in culture; type: cell-based, HIV-1; conditions: Human immunodeficiency virus 1
[8] = target: integrase (Human immunodeficiency virus type 1 group M subtype B, UniProt P04585); test: integrase enzymatic activity; type: biochemical, HIV
[9] = hollow fibre studies; type: in vivo; conditions: intraperitoneally; preliminary
[10] = test system: SIV MAC; test: in vitro antiviral activity, SIV; type: cell-based
[11] = test system: HIV-2; test: activity against HIV-2; type: cell-based
[12] = test system: HIV; test: combination studies with AZT; type: cell-based
[13] = test system: HEPT/P236L; test: activity against HIV mutants: HEPT/P236L; type: cell-based, HIV-1; conditions: Human immunodeficiency virus 1
[14] = test system: CEM-SS; test: growth inhibition of uninfected host cells in anti-HIV screen; conditions: Homo sapiens
[15] = test system: HIV-11118; test: in vitro anti-HIV activity, HIV-11118; type: cell-based, HIV-1
[16] = test system: HIV in fresh human peripheral blood mononuclear cells (PBMC's); test: in vitro anti-HIV activity in fresh human PBMC's; type: cell-based, HIV-1; conditions: Human immunodeficiency virus 1, PBMC
[17] = test system: HIV-1 attachment to cells (CEM-SS, PBMC's); test: virus attachment assay, p24 based; type: cell-based
[18] = solubility studies; type: physicochemical
Experimental: It is very soluble in propylene glycol (PG), polyethylene glycol (PEG) 400 and soybean oil. These solvents may be useful in formulating cosolvents suitable for pharmaceutical applications. The ethanolic solutions has UV absorptions in the 290-300 nm range, useful for analytical work. Aqueous solutions for analytical work were prepared in HPCD and diluted with water to the required concentrations. The stock solutions were stable when incubated for 48 hours at 37° C. and when stored at room temperature.

[19] = test system: TiBO/A98G, V1081; test: activity against HIV mutants: TiBO/A98G, V1081; type: cell-based, HIV-1; conditions: Human immunodeficiency virus 1
[20] = test system: breast cancer; test: NCI 60 cell line panel, breast cancer; type: cell-based
[21] = test system: HIV; test: HIV activity of co-isolated compounds; type: cell-based
[22] = test system: HIV-1 infected cells (p24 production); test: extended time course assay, p24 and XTT; conditions: addition to culture after infection

Sequence of BSA (P02769 25-607): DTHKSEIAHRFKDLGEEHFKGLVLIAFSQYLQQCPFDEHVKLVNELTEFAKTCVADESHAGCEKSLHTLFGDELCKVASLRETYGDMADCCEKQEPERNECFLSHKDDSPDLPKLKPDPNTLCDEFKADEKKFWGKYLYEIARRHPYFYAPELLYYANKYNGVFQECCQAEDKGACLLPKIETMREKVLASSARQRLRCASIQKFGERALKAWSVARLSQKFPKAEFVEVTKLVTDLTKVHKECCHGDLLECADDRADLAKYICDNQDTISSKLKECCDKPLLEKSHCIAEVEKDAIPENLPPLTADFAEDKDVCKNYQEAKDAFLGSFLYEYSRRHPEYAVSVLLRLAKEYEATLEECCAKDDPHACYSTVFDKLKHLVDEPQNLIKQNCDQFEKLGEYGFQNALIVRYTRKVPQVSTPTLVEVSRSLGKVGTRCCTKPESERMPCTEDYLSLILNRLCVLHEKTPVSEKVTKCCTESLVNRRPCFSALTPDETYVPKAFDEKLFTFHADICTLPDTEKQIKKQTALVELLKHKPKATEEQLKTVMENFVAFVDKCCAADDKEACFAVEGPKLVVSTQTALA

SMILES: COc1c(O)cc(C2COc3cc(O)cc(O)c3C2=O)cc1CC=C(C)C (racemic) [PMZ-1]
- pEC50 ([1]; Human immunodeficiency virus 1, DPS/Y181C): 5.86
- pEC50 ([1]; Human immunodeficiency virus 1, mutant Y181): ~6.00
- activity against three other mutant viruses [2]: some activity
- pEC50 [3]: 6.80
- MNTC [4]: 1000 nM
- U1/TNF differential latent infection XTT: toxic concentration ([5]; XTT): ≤ 3.16 µM
- U1/TNF differential latent infection p24 production ([5]; p24): no inhibition of p24 production
- quenching of fluorescence of BSA [6]: concentration dependent quenching
- pEC50 [7]: 7.00
- pIC50 [8]: 4.40
- activity in hollow fibre studies [9]: active
- activity against SIV [10]: weak activity
- activity against HIV-2 [11]: weak activity
- anti-viral combination effect with AZT [12]: anti-viral synergistic effects
- pEC50 [13]: < 5.30
- pIC50 [14]: 4.42
- pIC50 ([14]; cell growth, HIV-1 AZT^res test): 4.38
- pIC50 ([14]; cell growth, HIV-1 AZT^sen test): 4.46
- pIC50 ([14]; cell growth, HIV-1 DPS test): 4.38
- pIC50 ([14]; cell growth, HIV-1 N119 test): 4.22
- pIC50 ([14]; cell growth, HIV-1RF test): 4.70
- pIC50 ([14]; cell growth, HIV-1 ROD test): 4.55
- pIC50 ([14]; cell growth, HIV-11118 test): 4.34
- pIC50 ([14]; cell growth, SIV MAC test): 4.46
- pEC50 ([15]; Human immunodeficiency virus 1, HIV-1IIIB, NCI AIDS anti-viral screen): 6.70
- pEC50 ([15]; Human immunodeficiency virus 1, HIV-11118): 7.24
- pEC50 ([16]; PMBC's): 6.22
- pEC50 ([16]; fresh human PBMC's): > 6.00
- effect on attachment of virons to cells [17]: no effect
- HIV-1 Attachment to CEM-SS cells ([17]; at 100 μM, CEM-SS cells): No inhibition
- solubility in 40% HPCD ([18]; 40% hydroxypropyl beta-cyclodextrin): soluble
- solubility in ethanol ([18]; ethanol): > 1000 µg/mL
- solubility in PG, PEG 400 and soybean oil ([18]; propylene glycol, polyethylene glycol 400, soybean oil): very soluble
- solubility in water ([18]; water): poorly soluble
- pEC50 [19]: < 5.30
- activity against breast cancer [20]: good activity

SMILES: CC(C)=CCc1c(O)cc(O)c2c1OC(c1ccc(O)c(O)c1)CC2=O (stereo not drawn) [4382-39-1]
- HIV activity [21]: devoid of HIV activity

SMILES: CC(C)=CCc1cc(C2COc3cc(O)cc(O)c3C2=O)cc(O)c1O (stereo not drawn) [4382-39-2]
- HIV activity [21]: devoid of HIV activity

SMILES: Cc1ccnc2c1NC(=O)c1cccnc1N2C1CC1 [nevirapine, reference compound]
- time after infection within which addition is effective [22]: ≤ 8 h
